# Where a SMILES comes first, the peptide text is derived from it. Where no end group is shown, it is not given here. [ ]: non-standard residue; d: D form. The star is where a group is joined. Hydrocinnamoyl = O=C(CCc1ccccc1)*; PhAc = O=C(Cc1ccccc1)*; Aib = CC(C)(N)C(=O)O
# Legend:
# HT1080 cells [1] = experiment: HT1080 cell migration toward 10% FBS in Boyden chambers; assay type: cell-based, human; settings: 10 nM peptide plus 10% FBS, 4 hr, means of three independent experiments in triplicate
# Description: (§1) Cell migration in Boyden chambers was carried out for 4 hr at 37 °C in humidified air with 5% CO2, as described. Briefly, cell suspension (1 × 10^5 viable cells/mL serum free medium) was seeded in each upper chamber. Lower chambers were filled with DMEM alone, DMEM containing RI peptides, 10 nM fMLF, or 10% FBS with/without RI peptides. The two compartments were separated by 8 μm pore size polycarbonate filters (Neuroprobe) coated with 2.5 µg/mL vitronectin (Corning). For the invasion assays, 8 μm pore size filters were coated with 50 μg/filter matrigel (BD Biosciences) as previously described[40] and cells (3 × 10^4 viable cells/well) were allowed to invade matrigel for 6 hr at 37 °C, 5% CO2. In all cases, at the end of the assay, cells on the lower filter surface were fixed with ethanol, stained with haematoxylin and 10 random fields/filter were counted at 200× magnification. Each experiment was performed three times in triplicate.
# HT1080 cells [2] = experiment: HT1080 matrigel invasion toward 10% FBS in Boyden chambers; assay type: cell-based, human; settings: 10 nM peptide plus 10% FBS, 6 hr, means of three independent experiments in triplicate
# Description: as §1
# monocyte = settings: read-out: IC50 of inhibition of fMLF-induced monocyte locomotion; cited from earlier work
# Source text: The uPAR domains DI-DIII are connected by short linker regions. DI-DIII pack together into a concave structure that shifts to an active conformation upon binding to uPA[21], [22]. The linker between DI-DII is more flexible than that between the DII‒DIII domains[23]–[25], and includes the protease-sensitive crucial signaling region, uPAR84–95. In the form of a synthetic peptide, the minimal 88–92 sequence (Ser^88-Arg-Ser-Arg-Tyr^92, SRSRY) retains chemotactic activity and triggers directional cell migration and angiogenesis in vitro and in vivo [15]–[17], [26], [27]. Mechanistically, these ...
# GFP-tagged Sarc cells = experiment: Growth and spread of subcutaneous GFP-tagged Sarc tumors in nude mice; assay type: in vivo, Foxn1nu/nu female nude mice; settings: 6 mg/Kg i.p. every day for 12 days, five mice per group
# Description: To evaluate the effect of RI-3 on tumor growth and vascularization, Sarc cells were injected, as a single-cell suspension (1 × 10^6 cells in 100 µl of sterile PBS, 97% viability), subcutaneously in the flanks of sixteen six-eight weeks old, Foxn1nu/nu female nude mice (Harlan). Animals were randomized into two 8-mice groups with the treatment group receiving 6 mg/kg RI-3 by intra-peritoneal injection every 24 hr, and the control group receiving an equivalent injected volume of vehicle (PBS) only. Time-dependent average weight was monitored every two days. The length and the width of tumors were measured at different time points with a calliper and volumes were calculated using the formula: ½ × (width)[2] × length (mm). After 10 days, blood samples (at least 500 µL/mouse) from the retro-orbital venous plexus of mice anesthetized with 1% isoflurane were collected using a heparinized capillary tube and processed for determination of the Circulating Tumor Cells (CTCs). Then, the animals were sacrificed, the excised tumors were fixed in buffered formalin and processed for paraffin sectioning. Tumor vascularization was assessed by counting vascular channels harbouring red blood cells on CD31 immuno-stained sections in 5 randomly chosen fields per section, in at least two sections per tumor at x 200 as described. Two additional experiments were carried out with the same experimental design by injecting GFP-tagged Sarc cells (1 × 10^6 cells/mouse) subcutaneously in the flanks of twenty-five six-eight weeks old, Foxn1nu/nu female nude mice (Harlan). Animals were treated with 6 mg/kg RI-3, 6 mg/kg RERF or vehicle by intra-peritoneal injection every 24 hr for 10 or 12 days. Tumor growth and the appearance of positive tumor lesions near tumors and in lungs were monitored as brightly visualized by GFP fluorescence with a MacroFluo fluorescence stereomicroscope (Leica). We searched for the presence of GFP-positive nodules on the entire surface of freshly isolated lungs. Lungs were also sliced at approximately 3-mm thickness to examine the parenchyma in depth, and the positive nodules were acquired at higher magnification.
# sarcoma cell = settings: cited from earlier work
# Source text: (§2) Following on this observation, we developed a series of linear peptides that inhibit the uPAR/FPR1 interaction and reduce to basal levels directional cell migration, invasion and angiogenesis[37]–[40]. While providing proof-of-principle for the strategy, none of these peptides represents an ideal lead molecule: many of these peptides are unstable to enzymatic digestion in human serum, which limits their half-life in vivo, whereas ...
# [3] = cited from earlier work
# Source text: as §2
# FPR1 [4] = biological target: T1, FPR1 (Homo sapiens, UniProt P21462); experiment: Ligand binding assay: FITC-fMLF binding to RBL-2H3/ETFR cells; settings: 100 nM unlabeled peptide 60 min at 4 °C, then 10 nM FITC-fMLF 60 min at 4 °C; fluorescence plate reader
# T1 construct: expressed in transfected cells; host or cells: rat basophilic leukaemia RBL-2H3/ETFR cells (gift of F. Blasi)
# T1 sequence (P21462 1-350): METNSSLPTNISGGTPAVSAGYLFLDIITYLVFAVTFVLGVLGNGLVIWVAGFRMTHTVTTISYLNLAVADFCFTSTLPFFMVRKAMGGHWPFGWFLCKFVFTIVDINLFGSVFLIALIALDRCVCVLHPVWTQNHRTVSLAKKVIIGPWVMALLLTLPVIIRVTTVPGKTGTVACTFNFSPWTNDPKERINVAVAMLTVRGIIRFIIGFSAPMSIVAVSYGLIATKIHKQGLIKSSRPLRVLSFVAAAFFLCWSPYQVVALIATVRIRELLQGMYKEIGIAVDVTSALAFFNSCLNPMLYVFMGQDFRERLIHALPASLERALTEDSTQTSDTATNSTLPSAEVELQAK
# Description: RBL-2H3 cells, RBL-2H3/ETFR cells stably expressing FPR1 (1.5 × 10^6 cells/sample) were pre-incubated with diluents or the indicated unlabeled peptides for 60 min at 4 °C, extensively rinsed with phosphate buffer saline (PBS), exposed to 10 nM FITC-fMLF (Molecular Probes) in PBS for additional 60 min at 4 °C and again rinsed with PBS. Cell-associated fluorescence was quantitated with the fluorescence plate reader Victor 3 (Perkin Elmer) using 485 nm excitation and 535 nm emission filters. The experiments were performed three times in triplicate.
# HT1080 cells [5] = experiment: HT1080 cell migration toward peptide as chemoattractant, xCELLigence RTCA; assay type: cell-based, human; settings: migration toward 10 nM peptide, monitored 18 hr, quadruplicate
# Description: The kinetics of cell migration was monitored in real time using the xCELLigence Real Time Cell Analysis (RTCA) technology (Acea Bioscience) as described, [80]. For these experiments we used CIM-plates which are provided with interdigitated gold microelectrodes on the bottom side of a filter membrane interposed between a lower and an upper compartment. The lower chamber was filled with serum-free medium or growth medium with/without RI peptides. Cells (2 × 10^4 cells/well) were seeded on filters in serum-free medium. Cell migration was monitored for 18 hr, and each experiment was performed at least twice in quadruplicate.
# FPR1 [6] = biological target: T1, FPR1; experiment: Agonist-dependent FPR1 internalization, fluorescence microscopy in RBL-2H3/ETFR cells; assay type: cell-based; settings: 100 nM peptide 30 min at 37 °C, then 10 nM FITC-fMLF 30 min at 37 °C; confocal microscopy
# Description: Cells grown on glass slides to semi-confluence were exposed to diluents or the indicated unlabeled peptides for 30 min at 37 °C, then to 10 nM FITC-fMLF in PBS for additional 30 min at 37 °C and extensively rinsed with PBS. To visualize the cytoskeleton, the cells were fixed with 2.5% formaldehyde, permeabilized with 0.1% Triton X-100 for 10 min at 4 °C, and incubated with 0.1 µg/mL rhodamine-conjugated phalloidin (Sigma-Aldrich) for 40 min. In all cases, coverslips were mounted using 20% (w/v) Mowiol, visualized with a Zeiss 510META-LSM microscope (Carl Zeiss), and z-series were collected at 0.20 µm intervals.
Compound,reduction of FBS-directed cell migration (HT1080 cells [1]) [%],reduction of the extent of cell invasion (matrigel) (HT1080 cells [2]) [%],further results
"CC(C)(NC(=O)[C@@H](CCCNC(=N)N)NC(=O)Cc1ccccc1)C(=O)N[C@H](CCCNC(=N)N)C(N)=O [RI-4, Phenyl-Acetyl-D-Arg-Aib-D-Arg-NH2] (PhAc-[dR]-[Aib]-[dR]-NH2)",37,23,
"cyclized SRSRY: cyclized form of the uPAR 88–92 sequence Ser-Arg-Ser-Arg-Tyr (also: cyclized, mode not given here)",,,IC50 (monocyte): 0.01 nM
"CC(=O)N[C@H](Cc1ccc(O)cc1)C(=O)N[C@H](CCCNC(=N)N)C(=O)N[C@H](CCC(=O)O)C(=O)N[C@H](CCCNC(=N)N)C(N)=O [RI-1, Ac-(D)-Tyr-(D)-Arg-(D)-Glu-(D)-Arg-NH2] (Ac-[dY][dR][dE][dR]-NH2)",33,27,
"CC(=O)N[C@@H](CCCNC(=N)N)C(=O)N[C@@H](CCC(=O)O)C(=O)N[C@@H](CCCNC(=N)N)C(=O)N[C@@H](Cc1ccccc1)C(N)=O [RERF, reference compound] (Ac-RERF-NH2)",,,changes in body weight (GFP-tagged Sarc cells): did not cause changes in body weight
Ac-L-Arg-Aib-L-Arg-D-Ca(Me)Phe-NH2 [UPARANT],,,inhibition of sarcoma cell invasion in a mouse model of lung colonization (sarcoma cell): does not inhibit; stability in blood and resistance to enzymatic proteolysis [3]: stable in blood and displays prolonged resistance to enzymatic proteolysis
"CC(C)(NC(=O)[C@@H](CCCNC(=N)N)NC(=O)CCc1ccccc1)C(=O)N[C@H](CCCNC(=N)N)C(N)=O [RI-5, 3-Phenyl-Propionyl-D-Arg-Aib-D-Arg-NH2] (Hydrocinnamoyl-[dR]-[Aib]-[dR]-NH2)",28,9,
"CC(=O)N[C@H](Cc1ccc(O)cc1)C(=O)N[C@H](CCCNC(=N)N)C(=O)N[C@H](CO)C(=O)N[C@H](CCCNC(=N)N)C(N)=O [RI-2, Ac-(D)-Tyr-(D)-Arg-(D)-Ser-(D)-Arg-NH2] (Ac-[dY][dR][dS][dR]-NH2)",29,23,
"N-formyl-Met-Leu-Phe [fMLF, N-formyl-methionyl-leucyl-phenylalanine, reference compound]",,,effect on binding of FITC-fMLF to RBL-2H3/ETFR cells (FPR1 [4]): strongly reduced; ability to trigger cell migration (HT1080 cells [5]): elicited a considerable cell migration; effect on agonist-dependent FPR1 internalization (FPR1 [6]): prevented
